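Exposure lasted 48 hours, with cells grown in 96-well plates and compounds tested at five concentrations. TGI denotes the concentration required for complete inhibition of growth.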 Some results are limits rather than exact numbers.

Test systems include DLD-1 colon; SW-620 colon; HOP-18 NSCLC; RPMI-8226 leukemia; M19-MEL melanoma; HOP-62 NSCLC; NCI-H522 lung; CCRF-CEM leukemia; SK-OV-3 ovarian.
Common to all, as to test: growth of human tumour cells (NCI), 48 h

Regarding `CC(C)N(C(=O)C12C3C4C5(C#N)C3C1(C#N)C5C42C#N)C(C)C` (stereo unspecified), the TGI in the test on DLD-1 colon, in the test with SW-620 colon, in the test with HOP-18 NSCLC, with RPMI-8226 leukemia, in the test with M19-MEL melanoma and with HOP-62 NSCLC was greater than 100 µM each time. Besides, the TGI in the test with NCI-H522 lung, in the test with CCRF-CEM leukemia and with SK-OV-3 ovarian was greater than 100 µM throughout.
Consider `O=C(/C=C\c1ccccc1O)c1ccc(O)cc1O`, for which the TGI is greater than 100 µM in the test on DLD-1 colon; 22.7 µM in the test with SW-620 colon; greater than 100 µM in the test on HOP-18 NSCLC; greater than 100 µM in the test with RPMI-8226 leukemia; greater than 100 µM in the test with M19-MEL melanoma; greater than 100 µM in the test on HOP-62 NSCLC. Moreover, the TGI in the test with NCI-H522 lung, in the test with CCRF-CEM leukemia and in the test with SK-OV-3 ovarian was greater than 100 µM each time.
On to `Cc1c(C)c2ccc3oc4ccccc4c3c2oc1=O`, for which the TGI with DLD-1 colon, in the test on SW-620 colon, in the test on HOP-18 NSCLC, in the test on RPMI-8226 leukemia, with M19-MEL melanoma and with HOP-62 NSCLC was greater than 100 µM in each case. In addition, the TGI in the test on NCI-H522 lung, with CCRF-CEM leukemia and in the test on SK-OV-3 ovarian was greater than 100 µM each time.
`CCOC(OC(C)=O)[C@@H]1C=C[C@H](C)N(c2ccc([N+](=O)[O-])cc2)O1` (stereo partly specified): the TGI was 11.1 µM with DLD-1 colon; 9.2 µM in the test with SW-620 colon; 17.8 µM in the test with HOP-18 NSCLC; 5.45 µM in the test with RPMI-8226 leukemia; 5.3 µM in the test on M19-MEL melanoma; 31.6 µM in the test with HOP-62 NSCLC. The TGI was 8.97 µM in the test on NCI-H522 lung, greater than 21.8 µM in the test on CCRF-CEM leukemia and 35.3 µM in the test with SK-OV-3 ovarian.
On to `CSc1ccc2c(cc1=O)[C@@H](NC(=O)c1cccc([N+](=O)[O-])c1)CCc1cc(O)c(O)c(O)c1-2`, for which the TGI is greater than 100 µM with DLD-1 colon; 61.1 µM in the test with SW-620 colon; greater than 100 µM in the test on HOP-18 NSCLC; greater than 100 µM with RPMI-8226 leukemia; 49.4 µM in the test on M19-MEL melanoma; greater than 100 µM in the test on HOP-62 NSCLC. The TGI is 68.2 µM in the test with NCI-H522 lung, greater than 100 µM with CCRF-CEM leukemia and greater than 100 µM with SK-OV-3 ovarian.
Consider `CCC[C@H]1O[C@@H]2CC(=O)O[C@@H]2C2=C1C(=O)C=CC2=O`, for which the TGI was 35.8 µM in the test with DLD-1 colon; 35.7 µM in the test on SW-620 colon; 31.9 µM in the test with HOP-18 NSCLC; 74.6 µM in the test on RPMI-8226 leukemia; 41.7 µM in the test with M19-MEL melanoma; greater than 95 µM in the test on HOP-62 NSCLC. Moreover, the figures for the TGI in the test on NCI-H522 lung, with CCRF-CEM leukemia and in the test on SK-OV-3 ovarian were 4.68 µM, greater than 47.9 µM and greater than 56.3 µM, respectively.
For `CN(CCS(=O)(=O)N1C(=O)C2CCCN2C(=O)[C@@H]1Cc1ccccc1)C(=O)OCc1ccccc1` (stereo partly specified), the TGI in the test on DLD-1 colon is greater than 100 µM; with SW-620 colon, greater than 100 µM; in the test on HOP-18 NSCLC, greater than 100 µM; with RPMI-8226 leukemia it was 45.4 µM; in the test on M19-MEL melanoma, greater than 100 µM; in the test with HOP-62 NSCLC, greater than 100 µM. Also, the TGI with NCI-H522 lung, in the test on CCRF-CEM leukemia and in the test with SK-OV-3 ovarian was greater than 100 µM in each case.
Regarding `N#C/C(=C\c1cc(O)cc(O)c1)C(N)=O`, the TGI in the test on DLD-1 colon is greater than 100 µM; in the test on SW-620 colon, greater than 100 µM; with RPMI-8226 leukemia it was greater than 100 µM; in the test with M19-MEL melanoma, greater than 100 µM; in the test on HOP-62 NSCLC, greater than 100 µM; with NCI-H522 lung, 66.2 µM. Also, the TGI in the test with CCRF-CEM leukemia and in the test with SK-OV-3 ovarian was greater than 100 µM in each case.
Consider `C=CCC1(CN(C)C)CC/C(=C\c2ccc(OC)cc2)C1=O` (stereo unspecified), for which the TGI is greater than 100 µM in the test on DLD-1 colon; greater than 100 µM in the test with SW-620 colon; greater than 100 µM in the test on HOP-18 NSCLC; 52.6 µM in the test with RPMI-8226 leukemia; greater than 100 µM in the test with M19-MEL melanoma; greater than 100 µM in the test on HOP-62 NSCLC. The TGI in the test on NCI-H522 lung was 81.9 µM; in the test with CCRF-CEM leukemia, greater than 100 µM.
Take `C=C[C@@H](C)[C@]1(C(=O)OC)CCCC12OCCO2`: the TGI with DLD-1 colon, in the test with HOP-18 NSCLC, in the test on RPMI-8226 leukemia, in the test on M19-MEL melanoma, in the test with HOP-62 NSCLC and in the test with NCI-H522 lung was greater than 100 µM each time. Also, the TGI with CCRF-CEM leukemia and with SK-OV-3 ovarian was greater than 100 µM each time.
Turning to `Cc1ccc(C)c(N2C(=O)C(=O)C(c3nc4ccccc4s3)/C(=N/N)C2=O)c1` (stereo unspecified), the TGI in the test on DLD-1 colon was greater than 100 µM; in the test on SW-620 colon, greater than 100 µM; in the test on HOP-18 NSCLC it was greater than 100 µM; in the test on RPMI-8226 leukemia, greater than 100 µM; in the test on M19-MEL melanoma it was greater than 52.7 µM; in the test on HOP-62 NSCLC, greater than 100 µM. Moreover, the TGI in the test with NCI-H522 lung, in the test on CCRF-CEM leukemia and with SK-OV-3 ovarian was greater than 100 µM throughout.
`CC1(C)OC2C(CCP(=O)(O)O)OC(c3nc(C(N)=O)cs3)C2O1` (stereo unspecified): the TGI in the test with DLD-1 colon, in the test on SW-620 colon, in the test on HOP-18 NSCLC, in the test with RPMI-8226 leukemia, in the test with M19-MEL melanoma and in the test on NCI-H522 lung was greater than 100 µM each time. Also, the TGI in the test on CCRF-CEM leukemia and with SK-OV-3 ovarian was greater than 100 µM throughout.
As to `NNC(=O)C(=O)N/N=C(\CCCC(=O)Nc1ccc(Cl)cc1)CC(=O)c1ccc(F)cc1`, the TGI in the test with DLD-1 colon, in the test with SW-620 colon, in the test with HOP-18 NSCLC, in the test with RPMI-8226 leukemia, in the test on M19-MEL melanoma and in the test on HOP-62 NSCLC was greater than 100 µM in each case. Further, in the test on CCRF-CEM leukemia, the TGI is greater than 100 µM.

Source of the values: PubChem BioAssay (NCI).
